Assay results reported in patent EP3423441B1, “IODINATED ANALOGS OF CHOLINE, METHODS OF PREPARATION THEREOF, AND USE THEREOF AS MEDICAMENTS” (Univerzita Palackého v Olomouci, priority 2016, dated 2017).

Experiments:
choline transporters = assay: In vitro determination of IC50: inhibition of [^3H]choline chloride accumulation in PC-3 cells; assay type: cell-based; settings: cell line PC-3 (human prostate carcinoma), [^3H]choline chloride 0.81 × 10^-6 M, 60 min at 37 °C
Experimental: IC50 value corresponds to a concentration of the given analog of choline which reduces the accumulation of choline chloride, the natural ligand of choline transporterss, to 50 % of the maximum value. For the assay, the tritium labeled choline chloride, i.e. [^3H]choline chloride, was used. The assay was performed in vitro on the cell line PC-3 derived from a human prostate carcinoma, which is known to overexpress choline transporters. […] As the negative control, a cell line of human ovarian carcinoma SKOV3 prepared to the confluence of 90 % in 24-well plates was used.
The cultivation medium was removed from the thus prepared cells in cultivation plates and the cells were rinsed with phosphate buffered saline (PBS). Subsequently, 0.3 mL of "incubation buffer" (25 mM Tris/HCl, 5.4 mM KCl, 1.8 mM CaCl2, 0.8 mM MgSO4, 5 mM glucose, 140 mM NaCl, pH adjusted to 7.4) was added to the cells. Then 0.1 mL of the solution of the tested substance (analog of choline) in the incubation buffer was added to the PC-3 cells in such concentrations, that after adding [^3H]choline chloride the resulting concentrations of the tested analog would be following: 0 M, 10^-8 M, 10^-7 M, 10^-6 M, 5 × 10^-6 M, 10^-5 M, 10^-4 M, 5 × 10^-4 M, 10^-3 M, 5×10^-3 M. Each concentration was tested in triplicate.
Subsequently, all cells prepared in this manner (PC-3 and SKOV3) were incubated with the analogs of choline for 15 minutes at the temperature of 37 °C.
Then 0.1 mL of the solution of the [^3H]choline chloride in the incubation buffer was added to all cell-containing wells, so that 0.1 mL of the solution had the activity of 15 kBq and that the final concentration of the [^3H]choline chloride in the medium with the cells was 0.81 × 10^-6 M. The cells were then incubated at 37 °C for a period of 60 min. After the incubation, all buffer solution was removed from the cells. The cells were rinsed with PBS, which was subsequently removed, and 0.2 mL of aqueous NaOH solution (0.1 M) was added to each well. The cells were incubated with sodium hydroxide for 30 min at 37 °C. The lysate was then homogenized with a pipette and 10 µL of the lysate were used for the determination of protein concentration by bicinchonic acid assay (BCA).
The remaining lysate (180 µL) was quantitatively transferred into scintillation vials containing a previously prepared scintillation solution (2 mL of the solution in each vial). Each well was then additionally rinsed with 0.2 mL of pure water and this solution was added to the corresponding scintillation vials. Scintillation vials were closed and their content was stirred on a shaker.
To another three scintillation vials containing scintillation solution (2 mL of the solution in each vial) the standard samples of [^3H]choline chloride were added (i.e. 10 µl of the [^3H]choline chloride solution together with 180 µl of aqueous NaOH solution (0.1 M) and 200 µl of water). The vials were closed and their content was stirred on the shaker.
Subsequently, radioactivity of each scintillation vial was measured using a liquid scintillation counter (Tri-Carb 2910TR Liquid Scintillation Counter, PerkinElmer). The recorded counts per second (cps) were then used to calculate the accumulation of [^3H]choline chloride in the individual cell samples. […] These values were used to construct a sigmoid curve of dependence between the rate of [^3H]choline chloride accumulation and the competing ligand (analog of choline) concentration(inhibition curve, Figure 2). The IC50 values were calculated from these inhibition curves.

[1] = Binding to plasmatic proteins; settings: plasma
in vitro = settings: liver microsomes
Microsomal stability = settings: hepatic microsomes

Compound | IC50 (choline transporters) [µM] | other results
C[N+](C)(C)CCO [Choline] | 3.7 | –
COc1ccc(CC[N+](C)(C)CCO)cc1I.Cc1ccc(S(=O)(=O)[O-])cc1 [Example 1, (2-hydroxyethyl)-[2-(3-iodo-4-methoxyphenyl)ethyl]-dimethylammonium 4-methylbenzenesulfonate] | 47 | fraction unbound [1]: 0.805; microsomal CLint (in vitro): 8.4 µL/min/mg; Microsomal stability t1l2 (Microsomal stability): 165.0 min; Plasma stability (120 min) (Stability in the plasma): 28.4%
COc1ccc(CC[N+]23CCC(CC2)C(O)C3)cc1I.Cc1ccc(S(=O)(=O)[O-])cc1 (stereo not shown) [Example 2, 3-hydroxy-1-[2-(3-iodo-4-methoxyphenyl)ethyl]quinuclidin-1-ium 4-methylbenzenesulfonate] | 92 | fraction unbound [1]: 0.748; microsomal CLint (in vitro): 14.2 µL/min/mg; Microsomal stability t1l2 (Microsomal stability): 97.6 min; Plasma stability (120 min) (Stability in the plasma): 59.0%
COc1c(I)cc(CC[N+](C)(C)CCO)cc1I.Cc1ccc(S(=O)(=O)[O-])cc1 [Example 3, (2-hydroxyethyl)-[2-(3,5-diiodo-4-methoxyphenyl)ethyl]-dimethylammonium 4-methylbenzenesulfonate] | 25 | fraction unbound [1]: 0.512; microsomal CLint (in vitro): 1040 µL/min/mg; Microsomal stability t1l2 (Microsomal stability): 1.3 min; Plasma stability (120 min) (Stability in the plasma): 76.4%
COc1ccc(CCC[N+](C)(C)CCO)cc1I.Cc1ccc(S(=O)(=O)[O-])cc1 [Example 4, (2-hydroxyethyl)-[3-(3-iodo-4-methoxyphenyl)propyl]-dimethylammonium 4-methylbenzenesulfonate] | 19 | fraction unbound [1]: 0.715; microsomal CLint (in vitro): 1120 µL/min/mg; Microsomal stability t1l2 (Microsomal stability): 1.2 min; Plasma stability (120 min) (Stability in the plasma): 63.9%
C[N+](C)(CCO)CCc1ccc(I)cc1.Cc1ccc(S(=O)(=O)[O-])cc1 [Example 5, (2-hydroxyethyl)-[2-(4-iodophenyl)ethyl]-dimethylammonium 4-methylbenzenesulfonate] | 7.4 | fraction unbound [1]: 0.653; microsomal CLint (in vitro): 88.6 µL/min/mg; Microsomal stability t1l2 (Microsomal stability): 15.6 min; Plasma stability (120 min) (Stability in the plasma): 43.0%
C[N+]1(CCc2ccc(I)cc2)CCCC(O)C1.Cc1ccc(S(=O)(=O)[O-])cc1 (stereo not shown) [Example 6, 3-hydroxy-1-[2-(4-iodophenyl)ethyl]-1-methylpiperidin-1-ium 4-methylbenzenesulfonate] | 83 | fraction unbound [1]: 0.735; microsomal CLint (in vitro): 1230 µL/min/mg; Microsomal stability t1l2 (Microsomal stability): 1.1 min; Plasma stability (120 min) (Stability in the plasma): 81.3%
C[N+](C)(CCO)Cc1cccc(I)c1 [Example 9, (2-hydroxyethyl)-(3-iodobenzyl)-dimethylammonium methanesulfonate] | 99 | –
OCC[N+]1(Cc2cccc(I)c2)CCCC1 [Example 10, 1-(2-hydroxyethyl)-1-(3-iodobenzyl)pyrrolidin-1-ium methanesulfonate] | 13 | –
C[N+](C)(CCO)Cc1ccc(I)cc1 [Example 11, (2-hydroxyethyl)-(4-iodobenzyl)-dimethylammonium bromide] | 150 | –
CC[N+](CC)(CCO)Cc1ccc(I)cc1 [Example 12, diethyl-(2-hydroxyethyl)-(4-iodobenzyl)ammonium bromide] | 80 | –
OCC[N+]1(Cc2ccc(I)cc2)CCCC1 [Example 13, 1-(2-hydroxyethyl)-1-(4-iodobenzyl)pyrrolidin-1-ium bromide] | 29 | –
OCC[N+]1(Cc2ccc(I)cc2)CCCC1 [Example 20, 1-(2-hydroxyethyl)-1-(4-iodobenzyl)pyrrolidin-1-ium 4-methylbenzenesulfonate] | – | IC50 (choline transporters; 4-methylbenzenesulfonate): 6.3 µM; microsomal CLint (in vitro): 310 µL/min/mg
CCCCCCOc1ccc(CCC[N+](C)(C)CCO)cc1I [Example 21, [3-(4-hexyloxy-3-iodophenyl)propyl]-(2-hydroxyethyl)-dimethylammonium 4-methylbenzenesulfonate] | 0.43 | –
CCCCCCCCCCOc1ccc(CCC[N+](C)(C)CCO)cc1I [Example 22, [3-(4-decyloxy-3-iodophenyl)propyl]-(2-hydroxyethyl)-dimethylammonium methanesulfonate] | 1.9 | –
OCC[N+]1(CCOc2ccccc2I)CCCC1 [Example 24, 1-(2-hydroxyethyl)-1-[2-(2-iodophenoxy)ethyl]pyrrolidin-1-ium bromide] | 4.7 | –
C[N+](C)(CCO)CCOc1ccc(I)cc1 [Example 25, (2-hydroxyethyl)-[2-(4-iodophenoxy)ethyl]-dimethylammonium bromide] | 23 | –

Compound | IC50 (choline transporters) [µM] | other results
OCC[N+]1(CCOc2ccc(I)cc2)CCCC1 [Example 26, 1-(2-hydroxyethyl)-1-[2-(4-iodophenoxy)ethyl]pyrrolidin-1-ium bromide] | 18 | –
C[N+](C)(CCO)CCOc1cccc(I)c1 [Example 27, (2-hydroxyethyl)-[2-(3-iodophenoxy)ethyl]-dimethylammonium bromide] | 22 | –
OCC[N+]1(CCOc2cccc(I)c2)CCCC1 [Example 28, 1-(2-hydroxyethyl)-1-[2-(3-iodophenoxy)ethyl]pyrrolidin-1-ium bromide] | 15 | –
C[N+](C)(CCO)CCCCCCOc1cccc(I)c1 [Example 29, (2-hydroxyethyl)-[6-(3-iodophenoxy)hexyl]-dimethylammonium bromide] | 0.044 | –
OCC[N+]1(CCCCCCOc2cccc(I)c2)CCCC1 [Example 30, 1-(2-hydroxyethyl)-1-[6-(3-iodophenoxy)hexyl]pyrrolidin-1-ium bromide] | 0.91 | –
C[N+](C)(CCO)CCCCOc1ccccc1I [Example 31, (2-hydroxyethyl)-[4-(2-iodophenoxy)butyl]-dimethylammonium bromide] | 11 | –
OCC[N+]1(CCCCOc2ccccc2I)CCCC1 [Example 32, 1-(2-hydroxyethyl)-1-[4-(2-iodophenoxy)butyl]pyrrolidin-1-ium bromide] | 5.1 | –
C[N+](C)(CCO)CCc1ccc(I)s1 [Example 33, (2-hydroxyethyl)-[2-(5-iodothiophen-2-yl)ethyl]-dimethylammonium 4-methylbenzenesulfonate] | 0.45 | –
OCC[N+]1(CCc2ccc(I)s2)CCCC1 [Example 34, 1-(2-hydroxyethyl)-1-[2-(5-iodothiophen-2-yl)ethyl]pyrrolidin-1-ium 4-methylbenzenesulfonate] | 10 | –
OCC[N+]1(Cc2ccc(I)cc2)CCOCC1 [Example 35, 4-(2-hydroxyethyl)-4-(4-iodobenzyl)morpholin-4-ium bromide] | 270 | –
OCC[N+]1(Cc2ccccc2I)CCOCC1 [Example 36, 4-(2-hydroxyethyl)-4-(2-iodobenzyl)morpholin-4-ium chloride] | 43 | –
C[N+](C)(CCO)CCCCCCOc1cccnc1I [Example 37, (2-hydroxyethyl)-{6-[(2-iodopyridin-3-yl)oxy]hexyl}-dimethylammonium bromide] | 1.4 | –
C[N+](C)(CCO)CCCCOc1ccc(-c2ccccc2)cc1I [Example 39, (2-hydroxyethyl)-{4-[(3-iodo-[1,1'-biphenyl]-4-yl)oxy]butyl}-dimethylammonium bromide] | 1.3 | –
C[N+](C)(CCO)CCCCCCOc1ccc(I)c([N+](=O)[O-])c1 [Example 40, (2-hydroxyethyl)-[6-(4-iodo-3-nitrophenoxy)hexyl]-dimethylammonium bromide] | 0.14 | –
C[N+](C)(CF)CCO [Fluoromethylcholine, reference compound] | 16 | –
(2-hydroxyethyl)-{4-[(2-iodo-6-methylpyridin-3-yl)oxy]butyt}-dimethylammonium bromide [Example 38] | 18 | –
